Data as given in patent US20240398764A1, “METHODS OF TREATING DISEASES ASSOCIATED WITH SENESCENT CELL ACCUMULATION” (University of Florida Research Foundation, Incorporated, priority 2021, published 2024).

Key:
[1] = system: normal non-senescent REC (Non-SnC REC); experiment: Viability of Non-SnC REC; format: cell-based; details: 72 hr incubation; vs ABT263
Protocol: (§1) FIGS. 3A to 3B depicts viability of non-SnC human umbilical vein endothelial cells (HUVEC) and IR-induced SnC HUVEC treated with varying concentrations of ABT263 (FIG. 3A) or 753b (FIG. 3B). FIGS. 3C to 3D depict viability of non-SnC renal epithelial cells (REC), IR-induced SnC REC, and replicative senescent REC treated with varying concentrations of ABT263 (FIG. 3C) or 753b (FIG. 3D).
(§2) The viability of Non-SnC HUVEC, Non-SnC REC, IR-SnC HUVEC, IR-SnC REC, and Rep-SnC REC was measured 72 hr after they were incubated with increasing concentrations of 753b or ABT263 compared to cells/platelets with vehicle.

[2] = system: IR-induced senescent human umbilical vein endothelial cells (IR-SnC HUVEC); experiment: Viability of IR-SnC HUVEC; format: cell-based; details: 72 hr incubation; vs ABT263
Protocol: as §1, §2

[3] = Body conditions and insulin tolerance test in the STAM model; format: in vivo, C57BL6 mice; details: STZ/HFD mice; 5 mg/kg twice a week IP; postnatal day 150
Protocol: FIG. 8A is an image showing body condition of STZ/HFD mice treated with vehicle control or 753b. FIG. 8B depicts blood glucose (mg/dL) levels versus time after intraperitoneal injection of insulin in STZ/HFD mice treated with vehicle control or 753b. Data were means±SD from 5 mice per group. *p<0.05.
(§3) Experimental design: C57BL6 mice were injected with Streptozotocin (STZ) at postnatal day 2 to induce diabetes and then fed with HFD from postnatal day 30 till the end of the experiments (FIG. 5). Half of the mice started receiving vehicle and the others receiving 753b (5 mg/kg) treatment on postnatal day 45 twice a week by IP injection till the end of the experiments. A group of the mice were euthanized at postnatal day 90 (or day 45 after the initiation of the treatment) for analysis of senescent cell accumulation and steatosis. Another group of the mice were euthanized at postnatal day 150 (or day 105 after the initiation of the treatment) for analysis of liver fibrosis and cancer.
753b administration improves body conditions and ameliorates the development of insulin resistance in the STAM model. All the analyses were done in mice at postnatal day 150 (p150 or 105 days after treatment).

[4] = Hepatic fat accumulation in the STAM model (oil red staining, hepatic triglyceride); format: in vivo, C57BL6 mice; details: STZ/HFD mice; 5 mg/kg twice a week IP; postnatal day 90
Protocol: Scale bar: […]. FIG. 7B depicts percentage of oil red^+ area/field of the images depicted in FIG. 7A. Values represented means±SD. *p<0.05. […] Values represented means±SD. *p<0.05.
as §3
753b administration represses hepatic fat accumulation in the STAM model. The liver tissues were collected from mice at postnatal day 90 (p90 or 45 days after treatment) for the analyses. […] Quantification of oil red stained images was performed from 5 livers per group (FIG. 7B). […] Quantification was performed from 5 livers per group and was expressed as means±SD.

[5] = system: normal non-senescent HUVEC (Non-SnC HUVEC); experiment: Viability of Non-SnC HUVEC; format: cell-based, human; details: 72 hr incubation; vs ABT263
Protocol: as §1, §2

[6] = Myofibroblast cell activation and liver fibrosis in the STAM model; format: in vivo, C57BL6 mice; details: STZ/HFD mice, 5 mg/kg twice a week IP, postnatal day 150
Protocol: FIG. 9A depicts relative change in aSMA, Procollagen-1, Tgf-β, Ctgf, and Pdgf-β genes in livers of STZ/HFD mice treated with vehicle control or 753b. Data were means±SD of triplicate experiments. *p<0.05. […] Scale bar: […]. […] Actin was used as a loading control. FIG. 9D depicts hydroxyproline (μg/g) levels in the liver of STZ/HFD mice treated with vehicle control or 753b. *p<0.05.
as §3
753b administration inhibits myofibroblast cell activation and liver fibrosis in the STAM model. All the analyses were done in mice at postnatal day 150 (p150 or 105 days after treatment). […] Quantification was performed from 5 livers per group and was expressed as means±SD.

Bcl-2 = Bcl-2 (Homo sapiens, UniProt P10415); experiment: Immunoblot of Bcl-2 degradation in WI-38 fibroblast cells (Non-SnCs and IR-SnCs); format: cell-based; parameters: degradation of Bcl-xl and Bcl-2 in non-senescent WI-38 fibroblast cells (Non-SnCs) treated with varying concentrations of 753b; endogenous in cells; host or cells: WI-38 fibroblasts (non-senescent and ionizing-radiation-induced senescent); details: different concentrations, 16 h, dose-dependent
Source text: (§4) FIG. 2A depicts immunoblots showing degradation of Bcl-xl and Bcl-2 in non-senescent WI-38 fibroblast cells (Non-SnCs) treated with varying concentrations of 753b. 3-actin was used as a loading control. FIG. 2B depicts viability of Non-SnCs treated with varying concentrations of 753b or ABT263. FIG. 2C depicts immunoblots showing degradation of Bcl-xl and Bcl-2 in ionizing radiation-induced senescent WI-38 fibroblast cells (IR-SnCs) treated with varying concentrations of 753b. 3-actin was used as a loading control. FIG. 2D depicts viability of IR-SnCs treated with varying concentrations of 753b or ABT263. FIG. 2E depicts immunoblots showing degradation of Bcl-xl and Bcl-2 in human platelets treated with varying concentrations of 753b. FIG. 2F depicts viability of human platelets treated with varying concentrations of 753b or ABT263.
(§5) The potency of 753b in degrading Bcl-xl/2 was evaluated by immunoblots after the cells or platelets were treated with different concentrations of 753b for 16 h ([…]). 753b is more cytotoxic to IR-SnCs but less toxic to Non-SnCs and platelets. The viability of Non-SnCs, IR-SnCs and platelets was measured 72 hr (Non-SnCs and IR-SnCs) and 48 hr (platelets) after they were incubated with increasing concentrations of 753b or ABT263 compared to cells/platelets with vehicle.

human platelets = experiment: Viability of human platelets; format: cell-based; details: 48 hr incubation; vs ABT263
Source text: as §4, §5

Bcl-2, sequence (P10415 whole entry): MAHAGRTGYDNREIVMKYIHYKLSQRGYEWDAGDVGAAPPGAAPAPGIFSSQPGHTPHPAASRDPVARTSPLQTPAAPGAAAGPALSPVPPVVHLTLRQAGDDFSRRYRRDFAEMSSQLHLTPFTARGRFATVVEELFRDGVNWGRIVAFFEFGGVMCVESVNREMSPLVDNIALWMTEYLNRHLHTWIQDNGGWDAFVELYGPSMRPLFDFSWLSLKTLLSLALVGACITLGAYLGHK

## Cc1ncsc1-c1ccc([C@H](C)NC(=O)[C@@H]2C[C@@H](O)CN2C(=O)[C@@H](NC(=O)CCCCCCC(=O)N2CCN(C[C@]3(C)CCC(c4ccc(Cl)cc4)=C(CN4CCN(c5ccc(C(=O)NS(=O)(=O)c6ccc(N[C@H](CCN7CCOCC7)CSc7ccccc7)c(S(=O)(=O)C(F)(F)F)c6)cc5)CC4)C3)CC2)C(C)(C)C)cc1 [Compound 753b]
[1]
  Toxicity (viability) to Non-SnC REC compared with ABT263: less toxic
[2]
  Senolytic potency (viability) against IR-SnC HUVEC compared with ABT263: more potent senolytic agent
[3]
  Body conditions (dehydration and dampen hair): prevented the development of abnormal body conditions
  Insulin resistance (intraperitoneal injected insulin tolerance test): prevented insulin resistance
[4]
  Hepatic fat accumulation (oil red staining): inhibited hepatic fat accumulation
  Hepatic triglyceride level: decreased levels of hepatic triglyceride
[5]
  Toxicity (viability) to Non-SnC HUVEC compared with ABT263: less toxic
[6]
  Collagen level in livers (hepatic hydroxyproline assay): decreased levels of collagen
  Liver fibrosis (aSMA immunofluorescent staining and sirius red staining): prevented liver fibrosis
  aSMA and pro-collagen type I protein levels in livers (Western blotting): low levels of aSMA and pro-collagen type I proteins
[6]; vs controls
  Levels of fibrosis-related genes in livers (Q-RT-PCR): lower levels of fibrosis-related genes
Bcl-2; IR-induced senescent WI-38 fibroblast cells
  Bcl-2 degradation in IR-SnCs: degrades Bcl-xl and Bcl-2 in Non-SnCs and IR-SnCs
Bcl-2; non-senescent WI-38 fibroblast cells
  Bcl-2 degradation in Non-SnCs: degrades Bcl-xl and Bcl-2 in Non-SnCs and IR-SnCs
Human platelets
  Toxicity (viability) to human platelets compared with ABT263: less toxic
